Measurements reported in US10054582B2, “Compositions and methods for inhibiting HMGB1 activation of melanocytes” (The Procter & Gamble Company, priority 2014, dated 2018).
Entries after “also recorded” stand apart in the source; their conditions may differ.

Columns and labels:
HMGB1 = HMGB1 quantitation from keratinocytes (ELISA, normalized to total protein); format: cell-based; conditions: for change in HMGB1 level relative to the control (in words): keratinocytes contacted with test agent at different concentrations; for HMGB1 (pg)/protein (ug): keratinocytes, vehicle control 54
Experimental: Make a 210 mL suspension of keratinocytes at 40,000 cells/mL using suitable media to make a cell suspension. Place 2 mL of the cell suspension into the appropriate number of wells of one or more 12-well plates as needed, using the same velocity and insertion angle for each well as cells are pipetted. Incubate the 12-well plates overnight at 37° C. If the cell plating quality is poor (e.g., cells are not attached to plate or seeding density is uneven), discard and start over. Prepare a dosing media by diluting the test agent to the desired concentration (e.g., from 0.0001% to 10%) in a suitable media (e.g., the same media used to make the cell suspension). […] It is not uncommon for skin care actives to be included in skin care compositions at these levels. Optionally, include sufficient solublizer to provide 0.1% solublizer in the test sample. Add 2 mL of dosing media into each well of a 12-well plate and incubate at 4° C. overnight or until test agent is to be added to the test sample. Place prepared dosing media in the 37° C. incubator for at least 30 minutes, or until pH has equalized. When dosing media is warmed and at proper pH, dose the cells. Incubate the dosed cells at 37° C. for 6 hours. Keratinocytes (or other cells) are plated out in 12 well plates as described above with a seeding density of about 200,000 cells/well and incubated overnight at 37° C. with 5% CO2. The keratinocytes are dosed with a dosing medium containing the test agent and the plates returned to the incubator for another 20 hours. The supernatant for each is collected and the HMGB1 level analyzed using ELISA (USCN Life Sciences) in accordance with manufacturer's instructions. The cells are lysed with Glo Lysis Buffer (Promega) and the protein levels determined using a PIERCE brand bicinchoninic acid protein assay kit per manufacturer's instructions. The values of HMGB1 determined by ELISA and normalized to total protein levels from the cells.

[1] = system: primary human melanocytes; experiment: Melanocyte dendricity and size measurements (Incucyte ZOOM live cell imaging); format: cell-based
Description: The ability of a test agent to inhibit dendricity and cell body growth in melanocytes may be determined by contacting a sample of melanocytes with the test agent, measuring the change in dendricity and/or cell body growth and comparing the measured indicator to a control to determine if the test agent is identified as a skin tone agent. In some instances, it is important for the test sample to include a source of HMGB1. For example, an amount of HMGB1 (e.g., recombinant HIS-tagged HMGB1 available from Sigma) may be included in the test sample (e.g., at a final level of 0.1 μg/mL), or the test sample may include another type of cell, which can be stimulated to produce HMGB1. A control may be obtained by measuring the dendricity and/or cell body size of the melanocytes prior to contact with the test agent, measuring the dendricity and/or cell body size of the melanocytes in a control sample and/or from the dendricity and/or cell body size of melanocytes published in scientific literature, if available.
Primary human melanocytes (ATCC) are cultured for 2 passages in T150 flasks. For dendricity experiments, melanocytes are plated into 96 well plates (clear) at a density of about 5000 cells/well. The plates are placed into an Incucyte ZOOM® live cell imaging system (Essen Bioscience, Ann Arbor, Mich.) which resides inside a 37° C., 5% CO2 incubator. 20× images are collected every hour using the phase mode. The Neurite Outgrowth Software Package (Essen) is used to measure cell body size, dendrite length, and cell numbers.

[2] = melanocytes contacted with HMGB1 vs control / before treatment, span of three days

**Q.** With hydroxycinnamic acid [HCA] as the molecule, how does the “change in HMGB1 level relative to the control (in words)” value (HMGB1) read?
**A.** significantly reduced HMGB1 levels relative to the control

**Q.** What about the “HMGB1 (pg)/protein (ug)” value (HMGB1; test agent at 0.001%) of the same molecule?
**A.** 29 pg/µg

**Q.** What about the “HMGB1 (pg)/protein (ug)” value (HMGB1; test agent at 0.005%) of the same molecule?
**A.** 6 pg/µg

**Q.** And the “HMGB1 (pg)/protein (ug)” value (HMGB1; test agent at 0.02%)?
**A.** 2 pg/µg

**Q.** methyl hydroxycinnamic acid [ME-HCA] was tested. Which “change in HMGB1 level relative to the control (in words)” value (HMGB1) did it give?
**A.** significantly reduced HMGB1 levels relative to the control

**Q.** What about the “HMGB1 (pg)/protein (ug)” value (HMGB1; test agent at 0.001%) of the same molecule?
**A.** 33 pg/µg

**Q.** And the “HMGB1 (pg)/protein (ug)” value (HMGB1; test agent at 0.005%)?
**A.** 28 pg/µg

**Q.** And the “HMGB1 (pg)/protein (ug)” value (HMGB1; test agent at 0.02%)?
**A.** 4 pg/µg

B1: HMGB1: high-mobility group protein B1, SEQ ID NO: 1; recombinant HIS-tagged HMGB1 available from Sigma (protein, listed as Homo sapiens)
chain: MGKGDPKKPRGKMSSYAFFVQTCREEHKKKHPDASVNFSEFSKKCSERWKTMSAKEKGKFEDMAKADKARYEREMKTYIPPKGETKKKFKDPNAPKRPPSAFFLFCSEYRPKIKGEHPGLSIGDVAKKLGEMWNNTAADDKQPYEKKAAKLKEKYEKDIAAYRAKGKPDAAKKGVVKAEKSKKKKEEEEDEEDEEDEEEEEDEEDEDEEEDDDDE
modifications: His tag
notes: recombinant HIS-tagged HMGB1 available from Sigma
**Q.** How did the “cell body size of melanocytes” value [1, 2] turn out when B1 was run?
**A.** significantly larger cell body size relative to the control; also recorded: increased dendricity and cell body size

**Q.** What about the “dendricity (dendrite length) of melanocytes” value [1, 2] of the same molecule?
**A.** significantly longer dendrites relative to the control; also recorded: increased dendricity

**Q.** And the melanocyte proliferation ([1]; primary human melanocytes contacted with HMGB1)?
**A.** without enhancing melanocyte proliferation
